Converted amounts (≈) assume the structure as drawn. Blank lines part the entries; values can stand above or below the compound they belong to. Where a SMILES comes first, the peptide text is derived from it. The star is where a group is joined. βNA = c1ccc2cc(N*)ccc2c1
Key:
[1] = system: Staphylococcus epidermidis; assay: Inhibition of biofilm formation in Staphylococcus epidermidis DSM 3269 at 1.5 ug/ml after 24 hrs by MTT assay; type: functional; details: DSM 3269, 24 h
Staphylococcus aureus [2] = assay: Inhibition of biofilm formation in Staphylococcus aureus ATCC 29213 at 1.5 ug/ml after 24 hrs by MTT assay; type: functional; details: ATCC 29213, 24 h
Staphylococcus aureus [3] = assay: Inhibition of biofilm formation in Staphylococcus aureus ATCC 25923 at 1.5 ug/ml after 24 hrs by MTT assay; type: functional; details: ATCC 25923, 24 h
Staphylococcus aureus [4] = assay: Inhibition of biofilm formation in Staphylococcus aureus ATCC 657 at 1.5 ug/ml after 24 hrs by MTT assay; type: functional; details: ATCC 657, 24 h
[5] = system: Staphylococcus epidermidis; assay: Inhibition of biofilm formation in Staphylococcus epidermidis RP62A at 1.5 ug/ml after 24 hrs by MTT assay; type: functional
Staphylococcus aureus [6] = assay: Inhibition of biofilm formation in Staphylococcus aureus ATCC 702 at 1.5 ug/ml after 24 hrs by MTT assay; type: functional; details: ATCC 702, 24 h
Escherichia coli [7] = assay: Antibacterial activity against multi drug-resistant Escherichia coli KG4 after 24 hrs by serial dilution method; type: functional; details: KG4, 24 h
Escherichia coli [8] = assay: Antibacterial activity against multi drug-sensitive Escherichia coli MTCC 739 after 24 hrs by serial dilution method; type: functional; details: MTCC 739, 24 h
Escherichia coli [9] = assay: Antibacterial activity against multi drug-resistant Escherichia coli EM5 mutant after 24 hrs by serial dilution method; type: functional
Escherichia coli [10] = assay: Antibacterial activity against multi drug-resistant Escherichia coli EM7 mutant after 24 hrs by serial dilution method; type: functional
Escherichia coli [11] = assay: Antibacterial activity against multi drug-resistant Escherichia coli KG1 after 24 hrs by serial dilution method; type: functional; details: KG1, 24 h
Escherichia coli [12] = assay: Antimicrobial activity against Escherichia coli; type: functional
[13] = Inhibition of Escherichia coli PBP2
Pseudomonas aeruginosa [14] = assay: Antimicrobial activity against Pseudomonas aeruginosa; type: functional
Enterobacter [15] = assay: Antimicrobial activity against Enterobacter; type: functional
Staphylococcus aureus [16] = assay: Antibiofilm activity against methicillin-resistant Staphylococcus aureus BAA-44 at 100 uM after 24 hrs by crystal violet staining based assay; type: functional; details: BAA-44, 24 h
Staphylococcus aureus [17] = assay: Antibiofilm activity against methicillin-resistant Staphylococcus aureus BAA-44 after 24 hrs by crystal violet staining based assay; type: functional; details: BAA-44, 24 h
[18] = Inhibition of bacterial AmpC using nitrocefin as substrate incubated for 5 mins followed by substrate addition by UV-vis spectrophotometer; set-up: species or system Bacteria
[19] = Inhibition of Klebsiella pneumoniae NP6 KPC-2 expressed in Escherichia coli DH5alpha
Enterobacter [20] = assay: Antibacterial activity against ESBL/KPC-producing Enterobacter assessed as potentiation of aztreonam induced-antimicrobial activity by measuring aztreonam MIC (Rvb > 16 ug/ml); type: functional
Staphylococcus aureus [21] = assay: Antibacterial activity against Staphylococcus aureus ATCC 25923 after 24 hrs by broth microdilution method; type: functional; details: ATCC 25923, 24 h
[22] = target: T1, Quinolone resistance protein NorA (Staphylococcus aureus) (UniProt P0A0J7); assay: Inhibition of Staphylococcus aureus 1199B NorA assessed as potentiation of ciprofloxacin-induced antibacterial activity at 32 ug/ml after 24 hrs (reference value: 16 ug/ml)
T1 sequence (whole entry): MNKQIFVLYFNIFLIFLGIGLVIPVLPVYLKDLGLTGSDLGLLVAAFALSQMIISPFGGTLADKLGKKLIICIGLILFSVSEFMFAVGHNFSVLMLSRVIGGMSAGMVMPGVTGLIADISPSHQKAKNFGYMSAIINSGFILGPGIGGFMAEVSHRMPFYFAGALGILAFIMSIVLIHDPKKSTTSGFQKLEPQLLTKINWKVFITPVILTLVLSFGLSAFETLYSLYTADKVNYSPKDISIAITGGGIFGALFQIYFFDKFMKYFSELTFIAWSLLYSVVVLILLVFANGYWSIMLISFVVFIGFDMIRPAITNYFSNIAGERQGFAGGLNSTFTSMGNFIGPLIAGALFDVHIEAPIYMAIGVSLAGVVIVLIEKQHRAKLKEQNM

Staphylococcus aureus [23] = assay: Antibacterial activity against Staphylococcus aureus 1199B after 24 hrs by broth microdilution method; type: functional
Pseudomonas aeruginosa [24] = assay: Inhibition of Pseudomonas aeruginosa MexAB-Oprm assessed as potentiation of ciprofloxacin-induced antibacterial activity at 50 ug/ml (reference value: 16 ug/ml)
Pseudomonas aeruginosa [25] = assay: Inhibition of Pseudomonas aeruginosa MexAB-Oprm assessed as potentiation of levofloxacin-induced antibacterial activity at 50 ug/ml (reference value: 16 ug/ml)
Escherichia coli [26] = assay: Potentiation of tetracycline induced-antimicrobial activity against Escherichia coli assessed as fold reduction in tetracycline MIC at 25 ug/ml after 24 hrs by broth checkerboard method; type: functional

SMILES: O=C(c1cc(Br)ccc1O)c1[nH]c(Br)c(Cl)c1Br
- inhibition at 1.5 µg/mL [1]: > 60%
- inhibition at 1.5 µg/mL (Staphylococcus aureus [2]): > 60%
- inhibition at 1.5 µg/mL (Staphylococcus aureus [3]): > 60%
- inhibition at 1.5 µg/mL (Staphylococcus aureus [4]): > 60%
- inhibition at 1.5 µg/mL [5]: > 60%
- inhibition at 1.5 µg/mL (Staphylococcus aureus [6]): > 60%

SMILES: O=C(O[C@H]1CCC(=O)c2ccccc21)c1ccccc1 [4-O-BENZOYL-ALPHA-TETRALONE]
- MIC (Escherichia coli [7]): 250 to 1000 µg/mL (≈ 939 to 3760 µM)
- MIC (Escherichia coli [8]): 250 to 1000 µg/mL (≈ 939 to 3760 µM)
- MIC (Escherichia coli [9]): 250 to 1000 µg/mL (≈ 939 to 3760 µM)
- MIC (Escherichia coli [10]): 250 to 1000 µg/mL (≈ 939 to 3760 µM)
- MIC (Escherichia coli [11]): 250 to 1000 µg/mL (≈ 939 to 3760 µM)

SMILES: O=C(/C=C/c1ccccc1)O[C@H]1CCC(=O)c2ccccc21
- MIC (Escherichia coli [7]): 250 to 1000 µg/mL (≈ 855 to 3420 µM)
- MIC (Escherichia coli [8]): 250 to 1000 µg/mL (≈ 855 to 3420 µM)
- MIC (Escherichia coli [9]): 250 to 1000 µg/mL (≈ 855 to 3420 µM)
- MIC (Escherichia coli [10]): 250 to 1000 µg/mL (≈ 855 to 3420 µM)
- MIC (Escherichia coli [11]): 250 to 1000 µg/mL (≈ 855 to 3420 µM)

- MIC (Escherichia coli [12]): ≤ 2 µg/mL
- IC50 [13]: 16 µM
- MIC (Pseudomonas aeruginosa [14]): ≤ 2 µg/mL
- MIC (Enterobacter [15]): ≤ 2 µg/mL
SMILES: O=C(NOC1CCNC1)[C@@H]1CC[C@@H]2CN1C(=O)N2OS(=O)(=O)[O-].[Na+] (stereo partly specified)

SMILES: CCCCOc1cc(Br)cc(/C=C(\C)Cn2cc(CCCCCc3c[nH]c(N)n3)nn2)c1F
- inhibition at 100 µM (Staphylococcus aureus [16]): > 94%
- IC50 (Staphylococcus aureus [17]): 4.5 µM

SMILES: O=C(c1cc(Cl)cc(Cl)c1O)c1[nH]c(Br)c(Br)c1Br
- inhibition at 1.5 µg/mL [1]: 67.9 to 86.7%
- inhibition at 1.5 µg/mL (Staphylococcus aureus [2]): 67.9 to 86.7%
- inhibition at 1.5 µg/mL (Staphylococcus aureus [3]): 67.9 to 86.7%
- inhibition at 1.5 µg/mL (Staphylococcus aureus [4]): 67.9 to 86.7%
- inhibition at 1.5 µg/mL [5]: 67.9 to 86.7%
- inhibition at 1.5 µg/mL (Staphylococcus aureus [6]): 67.9 to 86.7%

- Ki [18]: 0.001 µM
SMILES: O=C(Cc1cccs1)N[C@H](B(O)O)c1cccc(C(=O)O)c1

- IC50 [19]: 200 µM
SMILES: CC(=O)Nc1ccc(S(=O)(=O)Nc2ccccc2NS(=O)(=O)c2ccc(NC(C)=O)cc2)cc1

SMILES: C/C(=C\c1cccc2ccccc12)Cn1cc(CCCCCc2c[nH]c(N)n2)nn1
- inhibition at 100 µM (Staphylococcus aureus [16]): > 94%
- IC50 (Staphylococcus aureus [17]): 9.86 µM

SMILES: CCCCCc1ccc(/C=C(\C)Cn2cc(CCCCCc3c[nH]c(N)n3)nn2)cc1
- inhibition at 100 µM (Staphylococcus aureus [16]): > 94%

- IC50 [13]: 63 µM
- MIC (Enterobacter [20]): < 4 µg/mL
SMILES: NC(=O)[C@@H]1CC[C@@H]2CN1C(=O)N2OS(=O)(=O)[O-].[Na+] [AVIBACTAM SODIUM]

- MIC (Staphylococcus aureus [21]): > 32 µg/mL
- MIC [22]: 4 µg/mL
- MIC (Staphylococcus aureus [23]): > 32 µg/mL
SMILES: O=C(NC(C(=O)O)c1c[nH]c2ccc(Br)cc12)c1c[nH]c2ccc(Br)cc12 (stereo unspecified)

SMILES: CCCCc1ccc(/C=C(\C)Cn2cc(CCCCCc3c[nH]c(N)n3)nn2)cc1
- inhibition at 100 µM (Staphylococcus aureus [16]): > 94%

SMILES: N=C(N)NCCC[C@H](NC(=O)[C@@H](N)Cc1ccccc1)C(=O)Nc1ccc2ccccc2c1 (H-Phe-Arg-βNA)
- MIC (Pseudomonas aeruginosa [24]): 2 µg/mL
- MIC (Pseudomonas aeruginosa [25]): 2 µg/mL

SMILES: CCCCCCCCCCCCCCCC(=O)O[C@H]1CCC(=O)c2ccccc21 [4-O-PALMITOYL-ALPHATETRALONE]
- MIC (Escherichia coli [7]): 250 to 1000 µg/mL (≈ 624 to 2500 µM)
- MIC (Escherichia coli [8]): 250 to 1000 µg/mL (≈ 624 to 2500 µM)
- MIC (Escherichia coli [9]): 250 to 1000 µg/mL (≈ 624 to 2500 µM)
- MIC (Escherichia coli [10]): 250 to 1000 µg/mL (≈ 624 to 2500 µM)
- MIC (Escherichia coli [11]): 250 to 1000 µg/mL (≈ 624 to 2500 µM)

SMILES: O=C(c1cc(Br)cc(Br)c1O)c1[nH]c(Br)c(Br)c1Br
- inhibition at 1.5 µg/mL [1]: 68.5 to 100%
- inhibition at 1.5 µg/mL (Staphylococcus aureus [2]): 68.5 to 100%
- inhibition at 1.5 µg/mL (Staphylococcus aureus [3]): 68.5 to 100%
- inhibition at 1.5 µg/mL (Staphylococcus aureus [4]): 68.5 to 100%
- inhibition at 1.5 µg/mL [5]: 68.5 to 100%
- inhibition at 1.5 µg/mL (Staphylococcus aureus [6]): 68.5 to 100%

SMILES: COc1cc(C(=O)O[C@H]2CCC(=O)c3ccccc32)cc(OC)c1OC [4-O-(3,4,5-TRIMETHOXYBENZOYL)-ALPHA-TETRALONE]
- MIC (Escherichia coli [7]): 250 to 1000 µg/mL (≈ 702 to 2810 µM)
- MIC (Escherichia coli [8]): 250 to 1000 µg/mL (≈ 702 to 2810 µM)
- MIC (Escherichia coli [9]): 250 to 1000 µg/mL (≈ 702 to 2810 µM)
- fold change (FC) (Escherichia coli [26]): 8
- MIC (Escherichia coli [10]): 250 to 1000 µg/mL (≈ 702 to 2810 µM)
- MIC (Escherichia coli [11]): 250 to 1000 µg/mL (≈ 702 to 2810 µM)

- MIC (Staphylococcus aureus [21]): > 32 µg/mL
- MIC (Staphylococcus aureus [23]): > 32 µg/mL
SMILES: CC(C)(C)OC(=O)NCC(NC(=O)c1c[nH]c2ccccc12)c1c[nH]c2ccccc12 (stereo unspecified)

SMILES: O=C(c1cc(Cl)cc(Cl)c1O)c1[nH]c(Cl)c(Cl)c1Cl
- inhibition at 1.5 µg/mL [1]: > 60%
- inhibition at 1.5 µg/mL (Staphylococcus aureus [2]): > 60%
- inhibition at 1.5 µg/mL (Staphylococcus aureus [3]): > 60%
- inhibition at 1.5 µg/mL (Staphylococcus aureus [4]): > 60%
- inhibition at 1.5 µg/mL [5]: > 60%
- inhibition at 1.5 µg/mL (Staphylococcus aureus [6]): > 60%

Reference: ChEMBL document CHEMBL4024742, “Pharmaceutical Approaches to Target Antibiotic Resistance Mechanisms” (J Med Chem, 2017)
